Results: patent US4954490A, “11 β-substituted progesterone analogs” (Research Triangle Institute, priority 1988, dated 1990)
“Also recorded” adds a separate entry of the source.

Key:
progesterone receptor = biological target: T1, progesterone receptor (Oryctolagus cuniculus, UniProt P06186); assay: Relative binding affinity to progesterone receptor in uterine cytosol (displacement of tritium-labeled progesterone); parameters: species or system rabbit (estrogen-primed immature female); conditions: for Progestin RBA: relative to progesterone (=100), rabbit uterine cytosol; for P-RBA/G-RBA: ratio of RBA values for progesterone receptor to glucocorticoid receptor
T1 construct: in the cytosol obtained from estrogen-primedimmature rabbit uterus; from tissue; host or cells: uterine cytosol of estrogen-primed immature female rabbits
T1 sequence (P06186 1-930): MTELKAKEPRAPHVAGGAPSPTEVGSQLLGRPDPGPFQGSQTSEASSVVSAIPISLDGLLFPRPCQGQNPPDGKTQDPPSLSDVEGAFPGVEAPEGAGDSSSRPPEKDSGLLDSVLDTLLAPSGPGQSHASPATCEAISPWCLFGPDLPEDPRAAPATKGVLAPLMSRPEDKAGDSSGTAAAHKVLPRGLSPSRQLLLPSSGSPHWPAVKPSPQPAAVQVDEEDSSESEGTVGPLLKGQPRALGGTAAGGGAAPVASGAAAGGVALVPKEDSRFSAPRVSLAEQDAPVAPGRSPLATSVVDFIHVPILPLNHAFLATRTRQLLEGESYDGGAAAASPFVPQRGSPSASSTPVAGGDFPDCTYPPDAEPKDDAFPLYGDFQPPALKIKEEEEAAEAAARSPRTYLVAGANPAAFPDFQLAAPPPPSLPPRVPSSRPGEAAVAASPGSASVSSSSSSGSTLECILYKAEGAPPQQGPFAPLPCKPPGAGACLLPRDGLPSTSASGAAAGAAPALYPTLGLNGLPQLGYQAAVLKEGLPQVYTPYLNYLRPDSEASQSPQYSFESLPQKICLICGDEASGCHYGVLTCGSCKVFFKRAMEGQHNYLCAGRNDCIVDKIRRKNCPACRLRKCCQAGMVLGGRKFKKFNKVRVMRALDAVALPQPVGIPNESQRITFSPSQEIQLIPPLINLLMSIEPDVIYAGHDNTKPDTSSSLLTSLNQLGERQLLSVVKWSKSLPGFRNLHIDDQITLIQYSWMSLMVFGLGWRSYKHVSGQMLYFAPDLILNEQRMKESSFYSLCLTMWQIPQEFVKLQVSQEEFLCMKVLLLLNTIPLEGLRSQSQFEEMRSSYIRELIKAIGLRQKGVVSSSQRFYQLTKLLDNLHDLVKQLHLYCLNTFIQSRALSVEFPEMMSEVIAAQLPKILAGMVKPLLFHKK
Experimental: (§1) The in vitro activity of the subject compounds was determined by measuring the binding affinities (RBA) of these compounds relative to progesterone for the progesterone receptor in the cytosol obtained from estrogen-primedimmature rabbit uterus and by measuring the RBA relative to dexamethasone for the glucocorticoid receptor from thymus of adrenalectomized rats. These assays were carried out by the procedures of J. R. Reel et al., Fertility and Sterility, 31, 552 (1979) (progesterone) and G. P. Chrousos et al., Endocrinology, 107, 472 (1980) (glucocorticoid).
^a Relative ability to displace tritiumlabeled progesterone from the
receptor in uterine cytosol from estrogenprimed immature female rabbits a
compared with progesterone (=100).

glucocorticoid receptor = biological target: T2, glucocorticoid receptor (Rattus norvegicus, UniProt P06536); assay: Relative binding affinity to glucocorticoid receptor of thymus (displacement of tritium-labeled dexamethasone); parameters: species or system rat (adrenalectomized); conditions: relative to dexamethasone (=100)
T2 construct: glucocorticoid receptor from thymus of adrenalectomized rats; from tissue; host or cells: thymus of adrenalectomized rats
T2 sequence (P06536 1-795): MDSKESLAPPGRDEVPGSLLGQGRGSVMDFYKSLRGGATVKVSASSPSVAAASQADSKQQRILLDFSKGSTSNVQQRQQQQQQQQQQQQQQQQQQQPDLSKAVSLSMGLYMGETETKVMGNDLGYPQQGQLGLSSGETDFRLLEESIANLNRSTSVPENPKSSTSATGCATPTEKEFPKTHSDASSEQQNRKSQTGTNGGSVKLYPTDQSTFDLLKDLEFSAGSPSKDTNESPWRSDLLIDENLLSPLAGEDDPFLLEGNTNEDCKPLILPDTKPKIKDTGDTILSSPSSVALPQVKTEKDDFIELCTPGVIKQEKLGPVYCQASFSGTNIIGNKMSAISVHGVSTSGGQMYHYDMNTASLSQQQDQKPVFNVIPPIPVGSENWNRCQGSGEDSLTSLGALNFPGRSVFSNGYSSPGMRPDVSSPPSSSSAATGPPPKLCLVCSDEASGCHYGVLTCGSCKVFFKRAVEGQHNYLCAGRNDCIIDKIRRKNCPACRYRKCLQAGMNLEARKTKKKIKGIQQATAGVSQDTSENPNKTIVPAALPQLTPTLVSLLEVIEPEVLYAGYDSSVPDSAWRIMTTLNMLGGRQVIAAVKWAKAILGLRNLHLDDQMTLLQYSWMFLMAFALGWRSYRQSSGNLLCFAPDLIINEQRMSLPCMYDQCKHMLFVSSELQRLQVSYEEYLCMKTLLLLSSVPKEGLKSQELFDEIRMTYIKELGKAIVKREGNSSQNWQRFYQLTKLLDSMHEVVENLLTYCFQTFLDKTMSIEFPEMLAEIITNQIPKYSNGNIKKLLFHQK
Experimental: as §1
^b Relative ability to displace tritiumlabeled dexamethasone from the
receptor of the thymus of adrenalectomized rats as compared to […]

[1] = tested on: endometrial response due to subcutaneous administration of progesterone; assay: Anti-McGinty intrauterine antiprogestational test; assay type: in vivo, estrogen-primed immature female rabbits; conditions: for ED90 (actual dose) / ED50 / ED90 (calculated): intrauterine; for ED50 / ED90 (calculated): from % Inhib = a + b · ln dose
Experimental: The antiprogestational activity of the compounds was studied after both intrauterine and oral administration. In each case the compound was tested for its ability to inhibit the endometrial response due to subcutaneous administration of progesterone to estrogen-primed immature female rabbits. The methodology used for the intrauterine test has been described by D. A. McGinty et al. See Endocrinology, 24, 829 (1939). For oral administration of test compounds, the method used was analogous to that of Clauberg. See Clauberg, Zentr. Gynakol., 54, 2757 (1930) as modified by McPhail J. Physiol. (London), 83, 145 (1935). Each active compound was characterized by a dose-related ability to block the progestational effect of simultaneously administered progesterone. When the percent inhibition was plotted versus the log of the dose, linear relationships were obtained. Linear regression analysis permitted calculation of the ED50 and ED90 values (the doses required for 50% and 90% inhibition of the progesterone effect, respectively). The actual dose which gave 90% or more inhibition is also given, although this value is probably less accurate than the calculated values which are based on the dose-response line. […] Since the intrauterine administration bypasses most of the drug-metabolizing systems of the body, especially the liver, intrinsic activity is expected to correlate reasonably well with binding activity to the receptor, according to currently held hypotheses regarding receptor binding.

[2] = tested on: endometrial proliferation (McPhail Index); assay: Progestational activity, intrauterine (McGinty assay); assay type: in vivo, estrogen-primed immature female rabbits; conditions: right horn control 0
Experimental: In this assay estrogen-primed immature female rabbits are treated by injection of the test compound into the left horn of the uterus while the right horn is left untreated as a control. Each horn is then scored for endometrial proliferation by the McPhail Index. […] It indicates a possible need for reassessment of the current hypotheses regarding the effect of this substituent on antagonist versus agonist activity.

[3] = tested on: endometrial response due to subcutaneous administration of progesterone; assay: Oral antiprogestational activity (Anti-Clauberg); assay type: in vivo, estrogen-primed immature female rabbits; conditions: for Wt of Uterus: ± SD; for McPhail Index: scale 0-4; for % Inhibition: based on change in McPhail Index
Experimental: The antiprogestational activity of the compounds was studied after both intrauterine and oral administration. In each case the compound was tested for its ability to inhibit the endometrial response due to subcutaneous administration of progesterone to estrogen-primed immature female rabbits. The methodology used for the intrauterine test has been described by D. A. McGinty et al. See Endocrinology, 24, 829 (1939). For oral administration of test compounds, the method used was analogous to that of Clauberg. See Clauberg, Zentr. Gynakol., 54, 2757 (1930) as modified by McPhail J. Physiol. (London), 83, 145 (1935).

[4] = actual dose giving ≥ 90% inhibition
[5] = progesterone alone, total SC dose 0.8 mg, no oral compound, N=6
[6] = total oral dose 1.0 mg, total SC progesterone 0.8 mg, N=6
[7] = total oral dose 5.0 mg, total SC progesterone 0.8 mg, N=6
[8] = total oral dose 10.0 mg, total SC progesterone 0.8 mg, N=5

| SMILES | Progestin RBA (progesterone receptor) | P-RBA/G-RBA (progesterone receptor) | Glucocort. RBA (glucocorticoid receptor) | ED90 (actual dose) [1, 4] | ED50 [1] | ED90 (calculated) [1] | further results |
| --- | --- | --- | --- | --- | --- | --- | --- |
| CC(=O)O[C@]1(C(C)=O)CC[C@H]2[C@@H]3C[C@@H](C)C4=CC(=O)CCC4=C3[C@@H](c3ccc(N(C)C)cc3)C[C@@]21C [OAc, H, β-CH3] | 15 | – | – | – | – | – | – |
| CC(=O)O[C@]1(C(C)=O)CC[C@H]2[C@@H]3CCC4=CC(=O)CCC4=C3[C@@H](c3ccc(N(C)C)cc3)C[C@@]21C [Compound 8a, 17α-acetoxy-11β-(4-N,N-dimethylaminophenyl)-19-norpregna-4,9-diene-3,20-dione] | 47 | 0.24 | 198 | 2.0 µg | 0.41 µg | 1.2 µg | – |
| CC[C@@H]1C[C@H]2[C@@H]3C[C@H](C)C4=CC(=O)CCC4=C3[C@@H](c3ccc(N(C)C)cc3)C[C@]2(C)[C@H]1C(C)=O [Compound 15a, 6α-Methyl-16α-ethyl-11β-(4-N,N-dimethylaminophenyl)-19-norpregna-4,9-diene-3,20-dione] | 61 | 0.42 | 246 | – | – | – | McPhail Index, Left Horn (Treated) ([2]; dose 20.0 μg intrauterine): 3.8 ± 0.12; McPhail Index, Left Horn (Treated) ([2]; dose 40.0 μg intrauterine): 3.9 ± 0.12; McPhail Index, Left Horn (Treated) ([2]; dose 80.0 μg intrauterine): 3.8 ± 0.12; ED90 (actual dose) ([1]; footnote c: no inhibition at tested dose): < 10 µg |
| CC(=O)[C@H]1CC[C@H]2[C@@H]3CCC4=CC(=O)CC[C@]4(C)[C@H]3CC[C@]12C [Progesterone, progesterone] | – | – | – | – | – | – | Wt of Uterus [3, 5]: 3.06 ± 0.45 g; McPhail Index [3, 5]: 3.96 ± 0.04 |
| CC[C@@H]1C[C@H]2[C@@H]3C[C@@H](C)C4=CC(=O)CCC4=C3[C@@H](c3ccc(N(C)C)cc3)C[C@]2(C)[C@H]1C(C)=O [H, Et, β-CH3, 68-methyl-16α-ethyl-118-(4-N,N-dimethylaminophenyl)-19-norpregna-4,9-diene-3,20-dione] | 48 | 0.45 | 106 | – | – | – | – |
| CC(=O)[C@@]1(O)CC[C@H]2[C@@H]3CCC4=CC(=O)CCC4=C3[C@@H](c3ccc(N(C)C)cc3)C[C@@]21C [OH, H, H] | 15 | 0.37 | 41 | – | – | – | – |
| CC(=O)[C@@]1(O)CC[C@H]2[C@@H]3C[C@H](C)C4=CC(=O)CCC4=C3[C@@H](c3ccc(N(C)C)cc3)C[C@@]21C [OH, H, α-CH3] | 46 | 0.26 | 175 | – | – | – | – |
| CC(=O)O[C@]1(C(C)=O)CC[C@H]2[C@@H]3C[C@H](C)C4=CC(=O)CCC4=C3[C@@H](c3ccc(N(C)C)cc3)C[C@@]21C [Compound 8b, 6α-methyl-17α-acetoxy-11β-(4-N,N-dimethylaminophenyl)-19-norpregna-4,9-diene-3,20-dione] | 43 | 0.18 | 242 | 2.0 µg | 0.54 µg | 1.9 µg | % Inhibition [3, 6]: 12.7 ± 3.0%; % Inhibition [3, 7]: 51.6 ± 12.2%; % Inhibition [3, 8]: 67.2 ± 6.1%; McPhail Index [3, 6]: 3.46 ± 0.12; McPhail Index [3, 7]: 1.92 ± 0.48; McPhail Index [3, 8]: 1.30 ± 0.24; Wt of Uterus [3, 6]: 3.26 ± 0.34 g; Wt of Uterus [3, 7]: 2.14 ± 0.22 g; Wt of Uterus [3, 8]: 2.24 ± 0.27 g |
| CC(=O)C1=CC[C@H]2[C@@H]3CCC4=CC(=O)CCC4=C3[C@@H](c3ccc(N(C)C)cc3)C[C@]12C [Compound 23, 11β-(4-N,N-Dimethylaminophenyl)-19-norpregna-4,9,16-triene-3,20-dione] | 8 | – | – | 1.0 µg | 0.26 µg | 0.81 µg | binding to the progesterone receptor (in words) (progesterone receptor): binds relatively weakly to the progesterone receptor; RBA as fraction of the value of the 17α-acetoxy compounds (progesterone receptor; compared with the 17α-acetoxy compounds): less than one-fifth; antiprogestational activity in vivo (in words) ([1]; rabbit, in vivo, listed as Δ-16 compound): even more potent activity; also recorded: exhibits strong antiprogestational activity |
